Assays:
human EP4 = molecular target: T1, human EP4 (Homo sapiens, UniProt P35408); experiment: cAMP Gs functional assay (HTRF cAMP dynamic-2) in EP4-transfected HEK293 cells; format: cell-based; details: HEK293 cells transfected with EP4 BacMam virus; for EC50: 30 min at 37° C., HTRF cAMP, read-out: cAMP human EP4 pEC50 (converted); for cAMP human EP4 Emax: positive control PGE2
T1 construct: expressed in transfected cells; host or cells: HEK293 cells transduced with EP4 BacMam baculovirus
Description: Cloning, Baculovirus generation, large scale infection of HEK293 cells and membrane preparation: Human prostaglandin E2 receptor 4 (EP4) was cloned into pBacMam expression vector (GeneScript, UK). Transposition of EP4 DNA was performed using Invitrogen's Bac-to-Bac Baculovirus Expression Systems. P0 baculovirus was generated by transfecting SF9 Cells with bacmid DNA using Cellfectin II transfection reagent (ThermoFisher Scientific, UK). Following P0 generation P1 virus was then generated ready for large scale infection and membrane preparation. HEK293 cells were grown in DMEM (ThermoFisher Scientific, UK), supplemented with 10% heat inactivated fetal bovine serum (FBS). Cells were infected at a seeding density of 3.5 million cells/mL in 500 cm^3 flasks at 5% v/v EP4 Bacman. Expression was carried out over a 36 hour period at 37° C. with 5% CO2. The cells were removed using PBS and a cell scrapper. The cell culture was centrifuged at 2500 RPM for 10 mins at 4° C. The supernatant was then poured off and the pellet stored at −80° C. The pellet was defrosted and re-suspended in 15 mL of homogenising buffer (20 mM HEPES, 10 mM EDTA, pH 7.4). Then homogenised in mechanical homogeniser (VMR) for 10 seconds. The membrane was centrifuged in centrifuge tubes at 40,000 g for 15 mins at 4° C. The supernatant was poured away and re-suspended in 15 mL of homogenising buffer and homogenised for 20 seconds. The membrane was then centrifuged at 40,000 g for 45 mins at 4° C. The membrane was then re-suspended in 3 mL of storage buffer (20 mM HEPES, 0.1 mM EDTA, pH 7.4) mixing well. The resulting membranes were then stored at −80° C.
cAMP Gs Functional Assay: cAMP production following EP4 receptor activation was determined using the Homogeneous Time-Resolved Fluorescence (HTRF) cAMP dynamic-2 assay (Cisbio, France). HEK293 cells were transfected using a 0.5% EP4 Bacman virus for 36 hours, before dissociating the cells, and freezing at −150° C.
On the day of testing, increasing concentration of test compounds, alongside positive controls ([…] PGE2 (Tocris, Abingdon, UK)) and negative control (DMSO (Sigma-Aldrich, UK) were added to a ProxiPlate-384 Plus, White 384-shallow well Mircoplate, (PerkinElmer, USA) using the ECHO dispense.
Cells were defrosted in a water bath and resuspended in DMEM supplemented with 10% FBS before centrifuging at 1200 RPM for 5 mins to form a pellet. The pellet was resuspended in assay buffer (DMEM+0.5 mM IBMX (Tocris, Abingdon, UK)) to 0.5×10^6 cells/mL. Cell suspension, for a final assay concentration of 5000 cell/well was added using the multidrop to the pre-dispensed assay plate. The plate was then incubated at 37° C. for 30 mins, with 5% CO2. The cAMP production was determined as manufacturer's instructions, before plates were read on a PheraStar fluorescence plate reader (BMG LabTech, Germany).

[1] = Unidirectional Caco-2 cell permeability assay; format: in vitro ADME; details: human, apical pH 6.5, basolateral pH 7.4, 1 hour, 37° C., n=2
Description: Caco-2 cells (ECACC) were seeded onto 24-well Transwell plates at 2×10^5 cells per well and used in confluent monolayers after a 21 day culture at 37° C. under 500 CO2. Test compounds were incubated at 10 μM, 0.2% DMSO final, n=2 in assay buffer (Hanks balanced salt solution supplemented with 25 mM HEPES, adjusted to pH 6.5). Hanks balanced salt solution supplemented with 25 mM HEPES, adjusted to pH 7.4 (0.2% DMSO final) was used for the basolateral chamber (as receiver).
Incubations were performed at 37° C., with samples removed from both donor and acceptor chambers at T=0 and 1 hour and compound analysed by mass spectrometry (LC-MS/MS) including an analytical internal standard ([…] carbamazepine).
Apparent permeability (Papp) values are shown in Table 3 and were determined from the relationship:
Where V is the volume of each Transwell compartment (apical 125 μL, basolateral 600 μL), and concentrations are the relative MS responses for compound (normalized to internal standard) in the donor chamber before incubation and acceptor chamber at the end of the incubation Area=area of cells exposed for drug transfer (0.33 cm^2).
Lucifer Yellow (LY) was added to the apical buffer in all wells to assess viability of the cell layer. As LY cannot freely permeate lipophilic barriers, a high degree of LY transport indicates poor integrity of the cell layer and wells with a LY Papp>10×10^−6 cm/s were rejected.
Compound recovery from the wells was determined from MS responses (normalized to internal standard) in donor and acceptor chambers at the end of incubation compared to response in the donor chamber pre-incubation.

T1 sequence (P35408 whole entry): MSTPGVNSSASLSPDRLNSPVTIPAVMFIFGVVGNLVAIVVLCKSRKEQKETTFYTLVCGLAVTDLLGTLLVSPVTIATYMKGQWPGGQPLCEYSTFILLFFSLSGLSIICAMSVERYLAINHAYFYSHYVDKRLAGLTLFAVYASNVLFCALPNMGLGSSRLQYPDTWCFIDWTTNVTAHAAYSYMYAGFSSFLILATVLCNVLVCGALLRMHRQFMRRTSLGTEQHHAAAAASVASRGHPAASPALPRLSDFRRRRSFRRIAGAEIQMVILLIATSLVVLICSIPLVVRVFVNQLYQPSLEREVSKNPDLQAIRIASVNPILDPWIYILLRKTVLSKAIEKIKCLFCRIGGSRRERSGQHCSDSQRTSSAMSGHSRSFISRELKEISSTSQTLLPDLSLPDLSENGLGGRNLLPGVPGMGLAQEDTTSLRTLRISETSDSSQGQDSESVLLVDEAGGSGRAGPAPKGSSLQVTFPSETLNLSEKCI

Cc1cc(O)ccc1-c1cccc(CN2CCC[C@@H]2C(=O)N[C@@H](C)c2ccc(C(=O)O)cc2)c1 [Example 1]
EC50 (human EP4): 2 nM
cAMP human EP4 Emax (human EP4): 81%
Papp A→B at 1 h, 10 μM [1]: 14.5 ×10⁻⁶ cm/s

Cc1cc(S(N)(=O)=O)ccc1-c1cccc(CN2CCC[C@@H]2C(=O)N[C@@H](C)c2ccc(C(=O)O)cc2)c1 [Example 2, 4-((S)-1-((R)-1-((2′-methyl-4′-sulfamoyl-[1,1′-biphenyl]-3-yl)methyl)pyrrolidine-2-carboxamido)ethyl)benzoic acid]
EC50 (human EP4): 1.58 nM
cAMP human EP4 Emax (human EP4): 99%
Papp A→B at 1 h, 10 μM [1]: 1.14 ×10⁻⁶ cm/s

Cc1cc(C(N)=O)ccc1-c1cccc(CN2CCC[C@@H]2C(=O)N[C@@H](C)c2ccc(C(=O)O)cc2)c1 [Example 3, 4-((S)-1-((R)-1-((4′-carbamoyl-2′-methyl-[1,1′-biphenyl]-3-yl)methyl)pyrrolidine-2-carboxamido)ethyl)benzoic acid]
EC50 (human EP4): 12.6 nM
cAMP human EP4 Emax (human EP4): 100%
Papp A→B at 1 h, 10 μM [1]: 1.18 ×10⁻⁶ cm/s

Cc1cc(S(N)(=O)=O)ccc1-c1cccc(CN2C[C@H](O)C[C@@H]2C(=O)N[C@@H](C)c2ccc(C(=O)O)cc2)c1 [Example 4, 4-((S)-1-((2R,4R)-4-hydroxy-1-((2′-methyl-4′-sulfamoyl-[1,1′-biphenyl]-3-yl)methyl)pyrrolidine-2-carboxamido)ethyl)benzoic acid]
EC50 (human EP4): 158 nM
cAMP human EP4 Emax (human EP4): 98%
Papp A→B at 1 h, 10 μM [1]: 0.26 ×10⁻⁶ cm/s

Cc1cc(O)ccc1-c1cccc(CN2C[C@H](O)C[C@@H]2C(=O)N[C@@H](C)c2ccc(C(=O)O)cc2)c1 [Example 5, 4-((S)-1-((2R,4R)-4-hydroxy-1-((4′-hydroxy-2′-methyl-[1,1′-biphenyl]-3-yl)methyl)pyrrolidine-2-carboxamido)ethyl)benzoic acid]
EC50 (human EP4): 63.1 nM
cAMP human EP4 Emax (human EP4): 80%
Papp A→B at 1 h, 10 μM [1]: 0.36 ×10⁻⁶ cm/s

Cc1cc(C(N)=O)ccc1-c1cccc(CN2C[C@H](O)C[C@@H]2C(=O)N[C@@H](C)c2ccc(C(=O)O)cc2)c1 [Example 6, 4-((S)-1-((2R,4R)-1-((4′-carbamoyl-2′-methyl-[1,1′-biphenyl]-3-yl)methyl)-4-hydroxypyrrolidine-2-carboxamido)ethyl)benzoic acid]
EC50 (human EP4): 501 nM
cAMP human EP4 Emax (human EP4): 91%
Papp A→B at 1 h, 10 μM [1]: 0.85 ×10⁻⁶ cm/s

C[C@H](NC(=O)[C@H]1CCCN1Cc1cccc(-c2ccc(O)cc2)c1)c1ccc(C(=O)O)cc1 [Example 7, 4-((S)-1-((R)-1-((4′-hydroxy-[1,1′-biphenyl]-3-yl)methyl)pyrrolidine-2-carboxamido)ethyl)benzoic acid]
EC50 (human EP4): > 10000 nM
Papp A→B at 1 h, 10 μM [1]: 7.71 ×10⁻⁶ cm/s

C[C@H](NC(=O)[C@H]1CCCN1Cc1cccc(-c2ccc(O)cc2C#N)c1)c1ccc(C(=O)O)cc1 [Example 8, 4-((S)-1-((R)-1-((2′-cyano-4′-hydroxy-[1,1′-biphenyl]-3-yl)methyl)pyrrolidine-2-carboxamido)ethyl)benzoic acid]
EC50 (human EP4): 31.6 nM
cAMP human EP4 Emax (human EP4): 74%
Papp A→B at 1 h, 10 μM [1]: 2.1 ×10⁻⁶ cm/s

Cc1cc(C(=O)O)ccc1-c1cccc(CN2CCC[C@@H]2C(=O)N[C@@H](C)c2ccc(C(=O)O)cc2)c1 [Example 9, 3′-(((R)-2-(((S)-1-(4-carboxyphenyl)ethyl)carbamoyl)pyrrolidin-1-yl)methyl)-2-methyl-[1,1′-biphenyl]-4-carboxylic acid]
EC50 (human EP4): 200 nM
cAMP human EP4 Emax (human EP4): 96%
Papp A→B at 1 h, 10 μM [1]: 0.33 ×10⁻⁶ cm/s

Cc1cc(OS(N)(=O)=O)ccc1-c1cccc(CN2CCC[C@@H]2C(=O)N[C@@H](C)c2ccc(C(=O)O)cc2)c1 [Example 10]
EC50 (human EP4): 2 nM
cAMP human EP4 Emax (human EP4): 96%
Papp A→B at 1 h, 10 μM [1]: 1.84 ×10⁻⁶ cm/s

C[C@H](NC(=O)[C@H]1CCCN1Cc1cccc(-c2ccc(C(N)=O)cc2O)c1)c1ccc(C(=O)O)cc1 [Example 11, 4-((S)-1-((R)-1-((4′-carbamoyl-2′-hydroxy-[1,1′-biphenyl]-3-yl)methyl)pyrrolidine-2-carboxamido)ethyl)benzoic acid]
EC50 (human EP4): 20 nM
cAMP human EP4 Emax (human EP4): 92%
Papp A→B at 1 h, 10 μM [1]: 0.18 ×10⁻⁶ cm/s

C[C@H](NC(=O)[C@H]1CCCN1Cc1ccc(O)c(-c2ccc(C(N)=O)cc2)c1)c1ccc(C(=O)O)cc1 [Example 12, 4-((S)-1-((R)-1-((4′-carbamoyl-6-hydroxy-[1,1′-biphenyl]-3-yl)methyl)pyrrolidine-2-carboxamido)ethyl)benzoic acid]
EC50 (human EP4): 7.94 nM
cAMP human EP4 Emax (human EP4): 89%
Papp A→B at 1 h, 10 μM [1]: 0.26 ×10⁻⁶ cm/s

Cc1cc(C(N)=O)ccc1-c1cc(O)cc(CN2CCC[C@@H]2C(=O)N[C@@H](C)c2ccc(C(=O)O)cc2)c1 [Example 13]
EC50 (human EP4): 0.251 nM
cAMP human EP4 Emax (human EP4): 99%
Papp A→B at 1 h, 10 μM [1]: 0.34 ×10⁻⁶ cm/s

Cc1cc(C(N)=O)ccc1-c1cc(CN2CCC[C@@H]2C(=O)N[C@@H](C)c2ccc(C(=O)O)cc2)ccc1O [Example 14]
EC50 (human EP4): 158 nM
cAMP human EP4 Emax (human EP4): 100%
Papp A→B at 1 h, 10 μM [1]: 0.19 ×10⁻⁶ cm/s

Cc1cc(C(N)=O)ccc1-c1cccc(CN2CCC[C@@H]2C(=O)NCc2ccc(C(=O)O)c(O)c2)c1 [Example 15, (R)-4-((1-((4′-carbamoyl-2′-methyl-[1,1′-biphenyl]-3-yl)methyl)pyrrolidine-2-carboxamido)methyl)-2-hydroxybenzoic acid]
EC50 (human EP4): 31.6 nM
cAMP human EP4 Emax (human EP4): 96%
Papp A→B at 1 h, 10 μM [1]: < 0.1 ×10⁻⁶ cm/s

Cc1cc(C(N)=O)ccc1-c1cccc(CN2CCC[C@@H]2C(=O)N[C@@H](C)c2ccc(C(=O)O)c(O)c2)c1 [Example 17, 4-((S)-1-((R)-1-((4′-carbamoyl-2′-methyl-[1,1′-biphenyl]-3-yl)methyl)pyrrolidine-2-carboxamido)ethyl)-2-hydroxybenzoic acid]
EC50 (human EP4): 63.1 nM
cAMP human EP4 Emax (human EP4): 97%

Cc1cc(C(N)=O)ccc1-c1cncc(CN2C[C@H](O)C[C@@H]2C(=O)N[C@@H](C)c2ccc(C(=O)O)cc2)c1 [Example 25, 4-((S)-1-((2R,4R)-1-((5-(4-carbamoyl-2-methylphenyl)pyridin-3-yl)methyl)-4-hydroxypyrrolidine-2-carboxamido)ethyl)benzoic acid]
EC50 (human EP4): 1260 nM
cAMP human EP4 Emax (human EP4): 91%

Cc1cc(C(N)=O)ccc1-c1cc(CN2CCC[C@@H]2C(=O)N[C@@H](C)c2ccc(C(=O)O)cc2)c[n+]([O-])c1 [Example 26, 3-(4-carbamoyl-2-methylphenyl)-5-(((R)-2-(((S)-1-(4-carboxyphenyl)ethyl)carbamoyl)pyrrolidin-1-yl)methyl)pyridine 1-oxide]
EC50 (human EP4): > 1000 nM

Cc1cc(S(N)(=O)=O)ccc1-c1cccc(CN2CC3CC2(C(=O)N[C@@H](C)c2ccc(C(=O)O)cc2)C3)c1 [Example 32, (S)-4-(1-(2-((2′-methyl-4′-sulfamoyl-[1,1′-biphenyl]-3-yl)methyl)-2-azabicyclo[2.1.1]hexane-1-carboxamido)ethyl)benzoic acid]
EC50 (human EP4): 0.398 nM
cAMP human EP4 Emax (human EP4): 90%
